The text below walks through data of patent EP0369810A2, “PAF antagonists as anti-hyperendothelinemia agents” (Takeda Chemical Industries, Ltd., priority 1988, dated 1990).

Like-named read-outs stand apart in the source and are kept apart here. Marks after values point to notes of the source that are not given here.

For data set [1], the system named is endothelin. As to the kind of experiment: Protective effects against endothelin-induced death in rats. The class given is in vivo. The settings on record: rat, survival 1 h after endothelin. On the procedure: (§1) Male SD-Jcl rats (5-6 weeks old) and male Jcl-ICR mice (5-6 weeks 01 d) were used without anesthetization.
(§2) Physiological saline or drug-dissolved physiological saline was given via the tail vein to a rat in a volume of 1 ml/kg and to a mouse in a volume of 5 ml/kg. Five minutes later, the same volume of endothelin (Peptide Institute; 5 nmol/kg)-dissolved physiological saline was intravenously given.
(§3) In the case of oral administration of a drug, the drug was given in 10 ml/kg of 5% gum arabic suspension one hour before the administration of endothelin.
(§4) One hour after the administration of endothelin, the survival rates were measured, and the effect of the drug was evaluated.

Data set [2] has as its system endothelin. Briefly: Protective effects against endothelin-induced death in mice. Particulars: mouse, survival 1 h after endothelin. The class given is in vivo. On the procedure: as §1, §2, §3, §4
Data set [3] relates to endothelin. As to the kind of experiment: Protective effects against arrhythmia-inducing activity of endothelin in rats (electrocardiogram). Type of data set: in vivo, rat. Particulars: anesthetized rats; for PVB counts (15 min.): premature ventricular beats; for VF incidence: ventricular fibrillation; for VT incidence: ventricular tachycardia. On the procedure: Male SD-Jcl rats (9 weeks old) were anesthetized with pentobarbital (50 mg/kg, intraperitoneal injection), and electrocardiogram (Lead II) was monitored on a polygraph. A drug was dissolved in physiological saline and given via the tail vein in a volume of 1 ml/kg. Five minutes later, endothelin (5 nmol/kg) was intravenously administered. In the case of oral administration, a drug was given in 10 ml/kg of 5% gum arabic suspension one hour before the administration of endothelin.

Data set [4] concerns cultured rat vascular smooth muscle cells. As to the kind of experiment: Inhibition of endothelin-induced elevation of cytosolic calcium concentration (fura-2 fluorescence). The class given is cell-based. The settings on record: endothelin 4 x 10-^9 M, read-out: Inhibitory activity (%); for inhibition at 0.4 µM: compound 4 x 10^-7 M; for inhibition at 0.04 µM: compound 4 x 10^-8 M; for inhibition at 4 µM: compound 4 x 10^-6 M. On the procedure:
A glass cover slide coated with 4 µM fura-2-loaded cultured rat vascular smooth muscle cells was inserted into a quartz cuvette which contained 2.5 ml HEPES buffer (pH 7.2). On this occasion, the glass cover slide was fixed on a diagonal of 45° to the direction of excitation light. The fluoroscence was measured in a Hitachi F-4000 spectrofluorimeter. Wavelengths were set at 340 nm and 380 nm for excitation and 505 nm for emission. Fmax and Fmin were estimated after addition of ionomycin (2 µM; Calbiochem) as calcium ionophore and EGTA (8 mM) as calcium ion-chelator, respectively. The cytosolic calcium ion concentration [Ca^++]i values were calculated by Tsien et al. formula: [Ca^++]-i = kd*(F-Fmin)/(Fmax-F) with modifications assuming kd = 224 nM, i.e. by the formulas: • [Ca^++]i = kd*(R-Rmin)*Sf2/(Rmax-R)*Sb2 • R = [D(W1)-AutoF1]/[D(W2)-AutoF2] • D(Wi) : Determined value at wavelength for excitation W1 • D(W2) : Determined value at wavelength for excitation W2 • AutoF1 : self-fluoroscence at W1 • AutoF2 self-fluoroscence at W2 • Rmin : R in zero Ca^++ = Fmin (W1)/Fmin (W2) • Rmax : R in Ca^++-saturated concentration = Fmax (W1)/Fmax (W2) • Sf2 : strength of fluoroscence by free Ca^++ at W2 • Sb2 : strength of fluoroscence by bound Ca^++ at W2 The experiments were carried out as follows: PAF antagonists, the compounds [II], [IV] and [Vllla], were added to the solution in the cuvette. Incubation was conducted for 5 minutes and then endothelin (4 x 10-^9 M) was added to observe changes of strength of fluoroscence.

A short description of a further data set: Acute toxicities. The settings on record: rat, in vivo. Here is the method: PAF antagonists were administered to male Wistar rats (4-6 weeks old) to observe the acute toxicities.
Data set [5] concerns Male Spraque Dawley (Jcl) rats. As to the kind of experiment: Effect on acute renal failure in rats (bilateral renal artery occlusion and reperfusion). Type of data set: in vivo, rat. Particulars: oral dose of 30 mg/kg 1 hour prior to occlusion; 45 min occlusion, 20 hours reperfusion. On the procedure: Male Spraque Dawley (Jcl) rats, 5 weeks old, were anesthetized with sodium pentobarbital (50 mg/kg, i.p.) and the renal artery was occluded bilaterally for 45 minutes followed by reperfusion for 20 hours. The blood was collected from the abdominal aorta under anesthesia for measurement of blood urea nitrogen (BUN).

The test system of a further data set is glomerulonephritic rats. As to the kind of experiment: Antiproteinuric action in glomerulonephritic rats. The class given is in vivo, rat. Particulars: urinary excretion; 100 mg/kg p.o. once a day for 4 weeks. Here is the method: Glomerulonephritis in rats was prepared according to the method by Nagamatsu et al. (Folia Pharmacol. Jpn. 78, 491, 1981). The mixture of 3 mg rabbit serum albumin (RSA) and the same amount of complete Freund's adjuvant was prepared. One ml/rat (3 mg/rat) of the mixture was first injected subcutaneously to 5 weeks old Spraque Dawley (Jcl) rats. 2 weeks later, RSA (1 mg/rat) was injected intravenously 3 times a week for 8 weeks. At the point of RSA injection for the first 4 weeks, urine was collected from the rat for 24 hours to measure urinary excretion of albumin and total protein. According to the value of albumin and total protein obtained, the rats were separated into 2 groups of the control and the treatment group. Then, the drug or vehicle was orally given once a day for 4 weeks and the 24 hour-urine at the 4 week of the dosage was collected for measurement of urinary albumin and total protein.

For a further data set, the system named is M-SHRsp. Briefly: Protective action on ischemic cerebral damage in M-SHRsp (bilateral carotid occlusion and reperfusion). The class given is in vivo, rat. The settings on record: 24 hour reperfusion. Here is the method:
Male malignant spontaneously hypertensive rats (M-SHRsp), 8 weeks old, were used. The carotid artery was occluded bilaterally for 1 hour under conscious condition followed by reperfusion for 24 hours. The drug was orally given 1 hour prior to the occlusion of the artery. The survival rate of rats was estimated during the 24 hour reperfusion.

Setting [6] is: 3 mg/kg i.v. 5 min before endothelin 5 nmol/kg i.v.
Setting [7] is: 1 mg/kg i.v. 5 min before endothelin 5 nmol/kg i.v.
[8] abbreviates: sustained increase of cytosolic calcium.
[9] abbreviates: transient increase of cytosolic calcium.
The mark [10] stands for this setting: 30 mg/kg p.o. 1 h before endothelin 5 nmol/kg i.v.
[11] abbreviates: 100 mg/kg p.o. 1 h before endothelin 5 nmol/kg i.v.
Where [12] appears, read: 30 mg/kg i.v. 5 min before endothelin 5 nmol/kg i.v.

The LD50 is the dose expected to kill half of the subjects tested. Low readings indicate a more toxic substance, high ones a less toxic substance. Turning to `CCCCCCCCCCCCCCCCCCNC(=O)OCC(COC(=O)N(Cc1cccc[n+]1CC)C(C)=O)OC.[Cl-]` (stereo not drawn) [Compd [II], 2-[N-acetyl-N-(2-methoxy-3-octadecylcarbamoyloxypropoxycarbonyl)-aminomethyl]-1-ethylpyridinium chloride], in the data set with endothelin [1] (setting [6]), the “Protective effect to death Survival Rate (%)” value (from here on “Protective effect … (%)”) is recorded as 94** % and the “Protective effect to death Survival Total” value is given as 15/16. In addition, in the data set on endothelin [2] (setting [6]), the “Protective effect … (%)” value is reported as 100** % and the “Protective effect to death Survival Total” value is reported as 10/10. Moreover, in the data set with endothelin [3] (setting [7]), the “PVB counts (15 min.)” value turned out to be 9±8, the VF incidence is 2/9** and the VT incidence is given as 3/9**. Also, in data set [4] (setting [8]), the inhibition at 0.4 µM was determined as 100% and the inhibition at 0.04 µM was found to be 100%. In data set [4] (setting [9]), the inhibition at 4 µM is 100% and the inhibition at 0.4 µM turned out to be 100%. Moreover, in the data set “Acute toxicities” (iv, male Wistar rats), the LD50 is above 20 mg/kg.

Regarding `CCC[n+]1cc(Br)cc(C(=O)N(CCC(=O)NCCOC(=O)N2CCc3ccccc3C2)c2ccccc2)c1` [Compd [VIIIb]], in data set [5], the “Blood urea nitrogen (BUN)” value was determined as 88 ± 2 mg/dL.

Turning to `Cc1nnc2n1-c1sc(CCC(=O)N3CCOCC3)cc1C(c1ccccc1Cl)=NC2` [Compd [IX], reference compound], in the data set on endothelin [1] (setting [10]), the “Protective effect … (%)” value was 40** % and the “Protective effect to death Survival Total” value is 6/15. Further, in the data set with endothelin [2] (setting [10]), the “Protective effect … (%)” value is on record as 53** % and the “Protective effect to death Survival Total” value is 8/15. Further, in the data set with endothelin [3] (setting [10]), the “PVB counts (15 min.)” value is recorded as 12±5, the VF incidence is on record as 4/6** and the VT incidence is listed as 4/6**.

`CCC[n+]1cc(Br)cc(C(=O)N(CCC(=O)NCCOC(=O)N2CCc3ccccc3C2)c2ccccc2)c1` [[VIIIa]]: in data set [4] (setting [8]), the inhibition at 0.4 µM is 100% and the inhibition at 0.04 µM came to 72.1%. Also, in data set [4] (setting [9]), the inhibition at 4 µM is 78.2% and the inhibition at 0.4 µM stood at 64.2%.

For `COc1cc2c(cc1OC)CCCC(C(=O)N1CCN(C(=O)c3cc(OC)c(OC)c(OC)c3)CC1)=C2` [Compd [IV], 1-(2,3-dimethoxy-6,7-dihydro-5H-benzocycloheptenyl-8-carbonyl)-4-(3,4,5-trimethoxybenzoyl)piperazine], the “Protective effect … (%)” value in the data set with endothelin [2] (setting [11]) is reported as 100** %. Moreover, the “Protective effect to death Survival Total” value with endothelin [2] (setting [11]) was 15/15. Moreover, the inhibition at 0.4 µM in data set [4] (setting [8]) is 52.6%; in data set [4] (setting [9]) it was 76.2%. The same compound showed an LD50 in “Acute toxicities” (po) above 1000 mg/kg. Moreover, the albumin with glomerulonephritic rats worked out at 17 ± 11 mg/100 g/24 hr. The compound also gave a total protein in the data set with glomerulonephritic rats of 43 ± 16 mg/100 g/24 hr. The “Survival rate (24 hr)” value is on record as 2/7 in the data set with M-SHRsp (1 mg/kg p.o. 1 hour prior to occlusion); 6/7* in the data set on M-SHRsp (10 mg/kg p.o. 1 hour prior to occlusion); 6 out of 7 in the data set with M-SHRsp (10 mg/kg p.o. 1 hour prior to occlusion, listed as compound [IV]); 4/4* with M-SHRsp (100 mg/kg p.o. 1 hour prior to occlusion); “all out of 4” in the data set on M-SHRsp (100 mg/kg p.o. 1 hour prior to occlusion, listed as compound [IV]).

Turning to `CCCCCCCCCCCCCCCCCCNC(=O)OCC(COP(=O)([O-])OCC[n+]1ccsc1)OC` (stereo not drawn) [Compd [VI], 3-(N-n-octadenylcarbamoyloxy)-2-methoxypropyl 2-thiazolioethyl phosphate], in the data set on endothelin [2] (setting [12]), the “Protective effect … (%)” value is listed as 36* % and the “Protective effect to death Survival Total” value is reported as 5/14. Also, the LD50 in “Acute toxicities” (iv, male Wistar rats) was above 50 mg/kg.
